Reference: ChEMBL document CHEMBL1128323, “Antifungal agents. 9. 3-Aryl-4-[alpha-(1H-imidazol-1-yl)arylmethyl]pyrroles: a new class of potent anti-Candida agents” (1995)
Values after ≈ are worked out from the molar mass of the structure shown.

Legend:
Format in all cases: functional
Candida albicans [1] = experiment: Inhibitory activity against Candida albicans (40 clinical isolates), determined at pH-5.8
Candida albicans [2] = experiment: Inhibitory activity against the Candida albicans (40 clinical isolates), determined at pH-5.8
Candida [3] = experiment: Resistance against all Candida. species (40 clinical isolates) at 256 micro g/mL (pH=5.8). Activity is expressed as R%.
Candida albicans [4] = experiment: Inhibitory activity against Candida albicans (40 clinical isolates), determined at pH-7.2
Candida [5] = experiment: 90% inhibitory activity against Candida. species (40 clinical isolates) determined at pH-7.2
Candida [6] = experiment: Percent resistance against all Candida. species (40 clinical isolates) at 256 micro g/mL (pH=7.2), activity is expressed as R%.
Candida albicans [7] = experiment: 50% inhibitory activity against Candida albicans (40 clinical isolates) determined at pH-7.2; details: Candida albicans; read-out: MIC50
Candida albicans [8] = experiment: Resistance against Candida. albicans (40 clinical isolates) at 256 ug/mL (pH=7.2), activity is expressed as R%.
Candida albicans [9] = experiment: Inhibitory activity against the Candida albicans (40 clinical isolates), determined at pH-7.2
Candida albicans [10] = experiment: 50% inhibitory activity against Candida albicans (40 clinical isolates) determined at pH-5.8
Candida [11] = experiment: Inhibitory activity against Candida. species (40 clinical isolates), determined at pH-5.8
Candida [12] = experiment: Inhibitory activity against Candida. species. (40 clinical isolates), determined at pH-7.2
Candida [13] = experiment: 50% inhibitory activity against the Candida. species (40 clinical isolates) was determined at pH-7.2
Candida albicans [14] = experiment: Percent resistance against Candida albicans (40 clinical isolates) at 256 micro g/mL (pH=5.8), activity is expressed as R%.
Candida [15] = experiment: Inhibitory activity against Candida. species. (40 clinical isolates), determined at pH-5.8

Cc1ccc(C(c2c[nH]cc2-c2ccc(Cl)c(Cl)c2)n2ccnc2)cc1 (centres undefined)
MIC (Candida albicans [1]): 7.9 µg/mL (≈ 20.7 µM)
MIC90 (Candida albicans [2]): 16 µg/mL (≈ 41.9 µM)
R (Candida [3]): 0%
MIC (Candida albicans [4]): 5.8 µg/mL (≈ 15.2 µM)
MIC90 (Candida [5]): 32 µg/mL (≈ 83.7 µM)
R (Candida [6]): 0%
MIC50 (Candida albicans [7]): 4 µg/mL (≈ 10.5 µM)
R (Candida albicans [8]): 0%
MIC90 (Candida albicans [9]): 16 µg/mL (≈ 41.9 µM)
MIC50 (Candida albicans [10]): 4 µg/mL (≈ 10.5 µM)
MIC50 (Candida [11]): 16 µg/mL (≈ 41.9 µM)
MIC90 (Candida [11]): 16 µg/mL (≈ 41.9 µM)
MIC (Candida [12]): 17.5 µg/mL (≈ 45.8 µM)
MIC50 (Candida [13]): 16 µg/mL (≈ 41.9 µM)
R (Candida albicans [14]): 0%
MIC (Candida [15]): 14.2 µg/mL (≈ 37.1 µM)

Clc1ccc(C(c2c[nH]cc2-c2ccc(Cl)c(Cl)c2)n2ccnc2)cc1 (centres undefined)
MIC (Candida albicans [1]): 8.9 µg/mL (≈ 22.1 µM)
MIC90 (Candida albicans [2]): 16 µg/mL (≈ 39.7 µM)
R (Candida [3]): 0%
MIC (Candida albicans [4]): 9.6 µg/mL (≈ 23.8 µM)
MIC90 (Candida [5]): 64 µg/mL (≈ 159 µM)
R (Candida [6]): 0%
MIC50 (Candida albicans [7]): 4 µg/mL (≈ 9.93 µM)
R (Candida albicans [8]): 0%
MIC90 (Candida albicans [9]): 16 µg/mL (≈ 39.7 µM)
MIC50 (Candida albicans [10]): 4 µg/mL (≈ 9.93 µM)
MIC50 (Candida [11]): 32 µg/mL (≈ 79.5 µM)
MIC90 (Candida [11]): 64 µg/mL (≈ 159 µM)
MIC (Candida [12]): 39.2 µg/mL (≈ 97.3 µM)
MIC50 (Candida [13]): 32 µg/mL (≈ 79.5 µM)
R (Candida albicans [14]): 0%
MIC (Candida [15]): 30.2 µg/mL (≈ 75 µM)

Clc1ccc(-c2c[nH]cc2C(c2ccc(Cl)c(Cl)c2)n2ccnc2)c(Cl)c1 (centres undefined)
MIC (Candida albicans [1]): 7.2 µg/mL (≈ 16.5 µM)
MIC90 (Candida albicans [2]): 32 µg/mL (≈ 73.2 µM)
R (Candida [3]): 0%
MIC (Candida albicans [4]): 19.6 µg/mL (≈ 44.8 µM)
MIC90 (Candida [5]): 32 µg/mL (≈ 73.2 µM)
R (Candida [6]): 0%
MIC50 (Candida albicans [7]): 16 µg/mL (≈ 36.6 µM)
R (Candida albicans [8]): 0%
MIC90 (Candida albicans [9]): 32 µg/mL (≈ 73.2 µM)
MIC50 (Candida albicans [10]): 2 µg/mL (≈ 4.58 µM)
MIC50 (Candida [11]): 16 µg/mL (≈ 36.6 µM)
MIC90 (Candida [11]): 16 µg/mL (≈ 36.6 µM)
MIC (Candida [12]): 21.3 µg/mL (≈ 48.7 µM)
MIC50 (Candida [13]): 16 µg/mL (≈ 36.6 µM)
R (Candida albicans [14]): 0%
MIC (Candida [15]): 14.2 µg/mL (≈ 32.5 µM)

Clc1ccc(C(c2c[nH]cc2-c2ccc(Cl)c(Cl)c2)n2ccnc2)c(Cl)c1 (centres undefined)
MIC (Candida albicans [1]): 5.9 µg/mL (≈ 13.5 µM)
MIC90 (Candida albicans [2]): 16 µg/mL (≈ 36.6 µM)
R (Candida [3]): 0%
MIC (Candida albicans [4]): 5.8 µg/mL (≈ 13.3 µM)
MIC90 (Candida [5]): 32 µg/mL (≈ 73.2 µM)
R (Candida [6]): 0%
MIC50 (Candida albicans [7]): 2 µg/mL (≈ 4.58 µM)
R (Candida albicans [8]): 0%
MIC90 (Candida albicans [9]): 16 µg/mL (≈ 36.6 µM)
MIC50 (Candida albicans [10]): 2 µg/mL (≈ 4.58 µM)
MIC50 (Candida [11]): 32 µg/mL (≈ 73.2 µM)
MIC90 (Candida [11]): 32 µg/mL (≈ 73.2 µM)
MIC (Candida [12]): 38.2 µg/mL (≈ 87.4 µM)
MIC50 (Candida [13]): 32 µg/mL (≈ 73.2 µM)
R (Candida albicans [14]): 0%
MIC (Candida [15]): 27.7 µg/mL (≈ 63.4 µM)
